Values joined by “and” are separate entries in the source; they are usually repeats but may differ in a detail not shown here. Identical values can stand only once.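 Growth conditions: 96-well plates. Treatment: test compound, 48 hours, 5 concentrations. Analysis: linear interpolation between bracketing concentrations; unreached endpoints set to highest concentration. Here, GI50 denotes the concentration required for 50% inhibition of growth. TGI marks complete inhibition of growth.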
Tests used:
Experiment in all cases: NCI anticancer screen, dose series, 48 h
CCRF-CEM leukemia = system: CCRF-CEM leukemia
COLO 205 colon = system: COLO 205 colon
HCT-116 colon = system: HCT-116 colon
K-562 leukemia = system: K-562 leukemia
LOX IMVI melanoma = system: LOX IMVI melanoma
OVCAR-3 ovarian = system: OVCAR-3 ovarian
RPMI-8226 leukemia = system: RPMI-8226 leukemia
SN12C renal = system: SN12C renal
UO-31 renal = system: UO-31 renal
MDA-MB-231 breast = system: MDA-MB-231 breast

| SMILES | TGI (CCRF-CEM leukemia) | TGI (COLO 205 colon) | TGI (HCT-116 colon) | TGI (K-562 leukemia) | TGI (LOX IMVI melanoma) | TGI (OVCAR-3 ovarian) | TGI (RPMI-8226 leukemia) | TGI (SN12C renal) | TGI (UO-31 renal) | TGI (MDA-MB-231 breast) | GI50 (CCRF-CEM leukemia) | GI50 (COLO 205 colon) | GI50 (HCT-116 colon) | GI50 (LOX IMVI melanoma) | GI50 (MDA-MB-231 breast) | GI50 (OVCAR-3 ovarian) | GI50 (RPMI-8226 leukemia) | GI50 (SN12C renal) | GI50 (UO-31 renal) |
| --- | --- | --- | --- | --- | --- | --- | --- | --- | --- | --- | --- | --- | --- | --- | --- | --- | --- | --- | --- |
| COC(=O)C(=O)C(C(=O)C(=O)Nc1ccc([N+](=O)[O-])cc1)c1nc2ccccc2[nH]c1=O (configuration not stated) | > 100 µM | > 100 µM | > 100 µM | > 100 µM | > 100 µM | > 100 µM | > 100 µM | > 100 µM | > 100 µM | – | – | – | – | – | – | – | – | – | – |
| Cc1cc(N(CCC#N)CCC#N)ccc1/C=C(\NC(=O)/C=C/c1ccccc1)C(=O)Nc1ccccc1Cl | > 100 µM | > 100 µM | > 100 µM | > 100 µM | > 100 µM | > 100 µM | > 100 µM | > 100 µM | > 100 µM | – | – | – | – | – | – | – | – | – | – |
| Cc1nc2c(C)ccc([N+](=O)[O-])c2c(NCCCN(C)C)c1C | > 100 µM | 47.6 µM | > 100 µM | > 100 µM | > 100 µM | > 100 µM | > 100 µM | > 100 µM | > 100 µM | – | – | – | – | – | – | – | – | – | – |
| Cc1cc(C)c2nc3c(c(C(O)C4CCCCN4)c2c1)CC/C3=C\c1ccc(Cl)cc1 (configuration not stated) | > 100 µM | > 100 µM | > 100 µM | > 100 µM | – | > 100 µM | > 100 µM | > 100 µM | – | > 100 µM | – | – | – | – | – | – | – | – | – |
| COc1cc2c(oc(=O)c3c4occc4cc(OC)c23)c2cccc(O)c12 | > 100 µM | > 100 µM | > 100 µM | > 100 µM | > 100 µM | > 100 µM | > 100 µM | > 100 µM | > 100 µM | – | – | – | – | – | – | – | – | – | – |
| Clc1ccc(C=Nc2ccc(-c3nc4ccccc4[nH]3)cc2)cc1 | > 100 µM | > 100 µM | > 100 µM | – | > 100 µM | > 100 µM | > 100 µM | > 100 µM | > 100 µM | > 100 µM | > 100 µM | > 100 µM | > 100 µM | > 100 µM | > 100 µM | > 100 µM | > 100 µM | > 100 µM | > 100 µM |
| O=S(=O)(c1ccccc1)N1CCCC(c2ccccc2)CC1 (configuration not stated) | > 100 µM | > 100 µM | > 100 µM | > 100 µM | – | > 100 µM | 49.8 µM | > 100 µM | > 100 µM | > 100 µM | – | – | – | – | – | – | – | – | – |
| NC(=NCCCCCCN=C(N)/N=C(\N)Nc1ccc(Cl)cc1)/N=C(\N)Nc1ccc(Cl)cc1 | – | 1.71 µM | 6.12 µM | – | 2.19 µM | 3.55 µM | – | 5.77 µM | 11 µM | 3.96 µM | – | 0.951 µM | 1.74 µM | 0.958 µM | 1.42 µM | 1.45 µM | – | 1.27 µM | 2.61 µM |
| COC(=O)[C@@]12OC[C@]34[C@H]([C@@H](O)[C@@H]1O)[C@@]1(C)CC(=O)C(O)=C(C)[C@@H]1C[C@H]3OC(=O)[C@H](OC(=O)/C=C(\C)C(C)C)[C@@H]24 | 0.0184 µM and 0.182 µM | 0.0167 µM and 0.0586 µM | 0.0144 µM and 0.0478 µM | – | – | 0.0151 µM and 0.0911 µM | 0.0129 µM and < 0.0409 µM and 0.0545 µM | 0.0582 µM and 0.0317 µM and 0.102 µM | 0.0834 µM and 0.142 µM and 0.405 µM | 0.0822 µM and 0.0757 µM | 0.00224 µM | – | – | – | 0.0228 µM | – | – | – | – |
| Cc1cc(NCCCCCCCNc2cc(C)nc3cc(N)ccc23)c2ccc(N)cc2n1 | 64.9 µM | 29.3 µM | > 100 µM | 26.1 µM | 45.4 µM | > 100 µM | > 100 µM | > 100 µM | > 100 µM | – | – | – | – | – | – | – | – | – | – |
| CCOc1ccc2nc(NC(=O)C(=O)C3C(=O)C(CC4C(=O)c5ccccc5C4=O)C(=O)CC3(C)C)sc2c1 (configuration not stated) | 70.1 µM | > 100 µM | > 100 µM | – | > 100 µM | > 100 µM | – | > 100 µM | > 100 µM | > 100 µM | – | – | – | – | – | – | – | – | – |

From PubChem BioAssay (NCI)
